Assay results published in patent US10316017B2, “COT modulators and methods of use thereof” (Gilead Sciences, Inc., priority 2015, dated 2019).

Experiments:
[1] = tested on: TNFα production in LPS-stimulated human monocytes; experiment: Cot Monocyte TNFα Cell Based Assay; conditions: Homo sapiens, Monocyte, TNFα in LPS-stimulated human monocytes; read-out: EC50 TNF
Procedure, shortened: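 TR-FRET read-out of total secreted TNFα, normalized as % control (unstimulated = 0%, LPS-stimulated = 100%). Cells (5,000/well) were exposed to compound 1 h at 37 °C, then to 50 pg/ml LPS for a further 4 h.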

[2] = molecular target: T1, human Cot catalytic domain (30-397 amino acids) (Homo sapiens, UniProt P41279); experiment: High Throughput Cot Biochemical Assay (KinEASE TR-FRET); conditions: Cot biochemical HTRF (KinEASE TR-FRET) assay; read-out: IC50 HTRF
T1 construct: Purified recombinant human Cot catalytic domain (30-397 amino acids) was purchased from Cama Biosciences; purchased Cama Biosciences (so in the source)
Procedure, shortened: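 TR-FRET readout: Eu-labeled phospho-specific antibody binds XL665-tagged STK3 peptide after phosphorylation by Cot (aa 30-397, 5 nM). Conditions: 400 μM ATP, 1 μM peptide, MOPS pH 7.0 buffer with MgOAc, DTT, BSA, NP-40, glycerol; 0.1% DMSO.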

T1 sequence (P41279 30-397): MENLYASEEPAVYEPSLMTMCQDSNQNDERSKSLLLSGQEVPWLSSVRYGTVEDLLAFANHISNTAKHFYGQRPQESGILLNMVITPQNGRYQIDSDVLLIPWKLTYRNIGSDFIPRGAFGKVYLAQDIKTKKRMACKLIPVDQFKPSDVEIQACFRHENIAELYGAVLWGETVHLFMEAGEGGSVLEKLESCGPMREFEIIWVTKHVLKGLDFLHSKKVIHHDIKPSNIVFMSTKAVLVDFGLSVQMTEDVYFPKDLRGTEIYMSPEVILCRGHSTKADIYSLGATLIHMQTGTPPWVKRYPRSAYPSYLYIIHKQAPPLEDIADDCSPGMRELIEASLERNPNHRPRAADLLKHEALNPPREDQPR

Row | EC50 [1] | IC50 [2] | SMILES
1 | 0.704 µM | 0.01 µM | N#Cc1cnc2c(F)cc(N[C@@H](c3ccc(Cl)cc3)c3cn(C4CCNCC4)nn3)cc2c1Nc1ccc(F)c(Cl)c1 [Example 814, (S)-4-((3-chloro-4-fluorophenyl)amino)-6-(((4-chlorophenyl)(1-(piperidin-4-yl)-1H-1,2,3-triazol-4-yl)methyl)amino)-8-fluoroquinoline-3-carbonitrile]
2 | 0.45 µM | 0.058 µM | CN(C)C(=O)CN1CCC(n2cc([C@@H](Nc3cc(Cl)c4ncc(C#N)c(Nc5ccc(F)c(Cl)c5)c4c3)c3ccc(F)cc3)nn2)CC1 [Example 824, (S)-2-(4-(4-(((8-chloro-4-((3-chloro-4-fluorophenyl)amino)-3-cyanoquinolin-6-yl)amino)(4-fluorophenyl)methyl)-1H-1,2,3-triazol-1-yl)piperidin-1-yl)-N,N-dimethylacetamide]
3 | 0.241 µM | 0.008 µM | CC(C)(C)N1CCC(n2cc([C@@H](Nc3cc(Cl)c4ncc(C#N)c(Nc5ccc(F)c(Cl)c5)c4c3)c3ccc(F)cc3)nn2)CC1 [Example 836, (S)-6-(((1-(1-(tert-butyl)piperidin-4-yl)-1H-1,2,3-triazol-4-yl)(4-fluorophenyl)methyl)amino)-8-chloro-4-((3-chloro-4-fluorophenyl)amino)quinoline-3-carbonitrile]
4 | 22.1 µM | 0.998 µM | Cn1cc([C@H](Nc2cc(Cl)c3ncc(C#N)c(Nc4ccc(F)c(Cl)c4)c3c2)c2cccc(CN3CCCC3)c2)nn1 [Example 842, (R)-8-chloro-4-((3-chloro-4-fluorophenyl)amino)-6-(((1-methyl-1H-1,2,3-triazol-4-yl)(3-(pyrrolidin-1-ylmethyl)phenyl)methyl)amino) quinoline-3-carbonitrile]

The next lines start with the compound.

Row | SMILES | EC50 [1] | IC50 [2]
5 | N#Cc1cnc2c(Cl)cc(N[C@@H](c3ccc(F)cc3)c3c[nH]nn3)cc2c1Nc1ccc(F)c(Cl)c1 [Example 819, (S)-8-chloro-4-((3-chloro-4-fluorophenyl)amino)-6-(((4-fluorophenyl)(1H-1,2,3-triazol-4-yl)methyl)amino)quinoline-3-carbonitrile] | 0.426 µM | 0.022 µM
6 | CC(C)N1CCC(n2cc([C@@H](Nc3cc(Cl)c4ncc(C#N)c(Nc5ccc(F)c(Cl)c5)c4c3)c3ccc(F)cc3)nn2)CC1 [Example 825, (S)-8-chloro-4-((3-chloro-4-fluorophenyl)amino)-6-(((4-fluorophenyl)(1-(1-isopropylpiperidin-4-yl)-1H-1,2,3-triazol-4-yl)methyl)amino)quinoline-3-carbonitrile] | 0.15 µM | 0.004 µM
7 | N#Cc1cnc2c(Cl)cc(N[C@@H](c3ccc(F)cc3)c3cn(C4CCN(CC(F)(F)F)CC4)nn3)cc2c1Nc1ccc(F)c(Cl)c1 [Example 828, (S)-8-chloro-4-((3-chloro-4-fluorophenyl)amino)-6-(((4-fluorophenyl)(1-(1-(2,2,2-trifluoroethyl)piperidin-4-yl)-1H-1,2,3-triazol-4-yl)methyl)amino)quinoline-3-carbonitrile] | 1.15 µM | 0.297 µM
8 | CC(C)(C)N1CCC(n2cc([C@@H](Nc3cc(Cl)c4ncc(C#N)c(Nc5ccc(F)c(Cl)c5)c4c3)c3ccccc3)nn2)CC1 [Example 831, (S)-6-(((1-(1-(tert-butyl)piperidin-4-yl)-1H-1,2,3-triazol-4-yl)(phenyl)methyl)amino)-8-chloro-4-((3-chloro-4-fluorophenyl)amino)quinoline-3-carbonitrile] | 0.381 µM | 0.01 µM
9 | Cn1cc([C@@H](Nc2cc(Cl)c3ncc(C#N)c(Nc4ccc(F)c(Cl)c4)c3c2)c2cccc(CN3CCCC3)c2)nn1 [Example 841, (S)-8-chloro-4-((3-chloro-4-fluorophenyl)amino)-6-(((1-methyl-1H-1,2,3-triazol-4-yl)(3-(pyrrolidin-1-ylmethyl)phenyl)methyl)amino) quinoline-3-carbonitrile] | 0.141 µM | 0.008 µM
